Test results: ChEMBL document CHEMBL5728679, “Imidazopyridinyl compounds and use thereof for treatment of neurodegenerative disorders” (2021)

Target: Tyrosine-protein kinase ABL1 (Homo sapiens, UniProt P00519)
Experiment: Kinase Assay: c-abl: ADP-Glo assay kit was purchased from Promega. Magnesium chloride (MgCl2), bovine serum albumin (BSA), ethylene glycol-bis(p-aminoethyl ether)-N,N,N′,N′-tetraacetic acid (EGTA), triton X-100, 1,4-dithiothreitol (DTT) and dimethyl sulfoxide (DMSO) were purchased from Sigma-Aldrich. HEPES buffer was purchased from Gibco. ABL1 kinase and Abltide were purchased from Signalchem.c-Abl kinase activity was measured by Promega's ADP-Glo™ Assay. In this assay, His-tagged recombinant human ABL1 (0.25 ng/μl) is incubated with 5 μL of compounds (0.5% DMSO), 5 μL of Abltide (0.01 μg/μl) and 5 μL of ATP (25 μM) in buffer (50 mM HEPES, 7.5; 10 mM MgCl2; 1 mM EGTA; 0.05% BSA; 0.01% Triton X-100; 2 mM DTT). The assay was started by incubating the reaction mixture in a 96-well plate at 30° C. for 30-min. After the incubation, 25 μL ADP-Glo reagent was added and the reaction was incubated at room temperature for 40-min to stop the reaction and degrade residual ATP. The ADP product was then converted to ATP by adding 50 μL per well of detection reagent. Luminescence was detected after 30-min room temperature incubation with the Molecular device I3X plate reader. The IC50 values were calculated from a series of percent inhibition values determined at a range of inhibitor concentration using software routines as implemented in the GraphPad Prism 7 software and Sigma Plot 13.0.

Tyrosine-protein kinase ABL1, sequence (P00519 whole entry): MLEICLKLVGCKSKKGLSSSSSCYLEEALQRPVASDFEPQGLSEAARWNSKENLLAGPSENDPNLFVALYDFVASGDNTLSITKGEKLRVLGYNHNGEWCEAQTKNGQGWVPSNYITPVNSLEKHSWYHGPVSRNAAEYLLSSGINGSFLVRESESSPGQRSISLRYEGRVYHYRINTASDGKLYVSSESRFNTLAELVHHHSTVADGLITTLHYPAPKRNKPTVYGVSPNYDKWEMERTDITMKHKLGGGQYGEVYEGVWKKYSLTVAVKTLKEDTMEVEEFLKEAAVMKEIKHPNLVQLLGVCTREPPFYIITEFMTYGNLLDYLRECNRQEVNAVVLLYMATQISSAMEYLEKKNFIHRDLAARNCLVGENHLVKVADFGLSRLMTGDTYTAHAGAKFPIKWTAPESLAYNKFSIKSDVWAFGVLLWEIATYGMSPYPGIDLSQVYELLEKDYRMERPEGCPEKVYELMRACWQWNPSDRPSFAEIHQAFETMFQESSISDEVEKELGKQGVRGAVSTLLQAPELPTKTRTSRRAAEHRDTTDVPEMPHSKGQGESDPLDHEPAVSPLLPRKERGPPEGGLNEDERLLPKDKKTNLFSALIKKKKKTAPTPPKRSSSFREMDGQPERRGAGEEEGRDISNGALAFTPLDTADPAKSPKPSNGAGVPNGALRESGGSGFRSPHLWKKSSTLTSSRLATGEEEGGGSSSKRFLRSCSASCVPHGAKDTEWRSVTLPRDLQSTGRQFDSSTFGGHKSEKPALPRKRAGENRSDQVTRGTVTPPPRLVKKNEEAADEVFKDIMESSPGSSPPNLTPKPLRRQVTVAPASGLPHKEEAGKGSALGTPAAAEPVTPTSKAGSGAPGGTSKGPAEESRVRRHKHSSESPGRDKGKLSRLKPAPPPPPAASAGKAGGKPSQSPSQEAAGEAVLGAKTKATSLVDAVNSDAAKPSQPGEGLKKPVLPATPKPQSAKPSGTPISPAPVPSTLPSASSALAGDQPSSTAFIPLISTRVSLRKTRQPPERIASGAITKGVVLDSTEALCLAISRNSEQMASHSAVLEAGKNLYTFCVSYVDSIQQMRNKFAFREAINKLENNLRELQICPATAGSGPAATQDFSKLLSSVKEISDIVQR

Structure (SMILES) | IC50 [nM]
COc1ccncc1-c1ccc2nc(NC(=O)[C@@H]3C[C@@H]3F)cn2c1 | < 10
Cc1cccc(C)c1-c1ccc2nc(NC(=O)[C@@H]3C[C@@H]3F)cn2c1 | < 10
Cc1cc2scnc2cc1-c1ccc2nc(NC(=O)[C@@H]3C[C@@H]3F)cn2c1 | < 10
Cc1c(F)cccc1-c1ccc2nc(NC(=O)C3CC3(F)F)cn2c1 (centres undefined) | < 10
